Results reported in patent publication US20150105252A1, “SUBSTITUTED PYRAZOLES AS HERBICIDES” (E I DU PONT DE NEMOURS AND COMPANY, priority 2013, published 2015).

Legend:
[1] = test system: barnyardgrass; test: Test A preemergence; assay type: in vivo, Echinochloa crus-galli; conditions: preemergence
Method in brief: (§1)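 After sowing in a sand–loam mix, pots received compound preemergence by directed soil spray, or postemergence once plants reached the one- to two-leaf stage (2–10 cm). Formulation contained surfactant in a non-phytotoxic solvent. Injury was scored visually after ~10 greenhouse days, 0–100 scale.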

[2] = test system: crabgrass, large; test: Test A preemergence; assay type: in vivo, Digitaria sanguinalis; conditions: preemergence
Method in brief: as §1

[3] = test system: velvetleaf; test: Test A preemergence; assay type: in vivo, Abutilon theophrasti; conditions: preemergence
Method in brief: as §1

[4] = test system: wheat; test: Test A preemergence; assay type: in vivo, Triticum aestivum; conditions: preemergence
Method in brief: as §1

[5] = test system: corn; test: Test A preemergence; assay type: in vivo, Zea mays; conditions: preemergence
Method in brief: as §1

[6] = test system: crabgrass, large; test: Test A postemergence; assay type: in vivo, Digitaria sanguinalis
Method in brief: as §1

[7] = test system: pigweed; test: Test A postemergence; assay type: in vivo, Amaranthus retroflexus; conditions: Postemergence
Method in brief: as §1

[8] = test system: wheat; test: Test A postemergence; assay type: in vivo, Triticum aestivum; conditions: Postemergence
Method in brief: as §1

[9] = test system: blackgrass; test: Test C preemergence; assay type: in vivo, Alopecurus myosuroides; conditions: preemergence
Method in brief: (§2)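 Greenhouse pot test: preemergence application onto freshly seeded loam/sand mix, postemergence application onto seedlings (1–4 leaves, 2–18 cm) in peat-vermiculite substrate. Responses scored visually 13 to 15 days later relative to controls, where 0 means no effect and 100 means complete control; a dash indicates no result.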

[10] = test system: wheat; test: Test C preemergence; assay type: in vivo, Triticum aestivum; conditions: preemergence
Method in brief: as §2

[11] = test system: corn; test: Test C preemergence; assay type: in vivo, Zea mays; conditions: preemergence
Method in brief: as §2

[12] = test system: foxtail, giant; test: Test C preemergence; assay type: in vivo, Setaria faberii; conditions: preemergence
Method in brief: as §2

[13] = test system: johnsongrass; test: Test C preemergence; assay type: in vivo, Sorghum halepense; conditions: preemergence
Method in brief: as §2

[14] = test system: ragweed; test: Test C preemergence; assay type: in vivo, Ambrosia elation; conditions: preemergence
Method in brief: as §2

[15] = test system: barnyardgrass; test: Test C preemergence; assay type: in vivo, Echinochloa crus-galli; conditions: preemergence
Method in brief: as §2

[16] = test system: oilseed rape; test: Test C preemergence; assay type: in vivo, Brassica napus; conditions: preemergence
Method in brief: as §2

[17] = test system: velvetleaf; test: Test C preemergence; assay type: in vivo, Abutilon theophrasti; conditions: preemergence
Method in brief: as §2

[18] = 125 g ai/ha, visual injury approx. 10 days after treatment
[19] = 500 g ai/ha, visual injury after approx. 10 days, 0 to 100 scale (0 no effect, 100 complete control)
[20] = 125 g ai/ha, 0 to 100 scale, 0 no effect, 100 complete control
[21] = 500 g ai/ha, 0 to 100 scale (0 no effect, 100 complete control)
[22] = 31 g ai/ha, visual rating, scale 0 to 100 (0 no effect, 100 complete control), 13 to 15 days
[23] = 62 g ai/ha, scale 0 to 100 (0 no effect, 100 complete control), 13 to 15 days
[24] = 125 g ai/ha, 13 to 15 days, scale 0 to 100, 0 = no effect, 100 = complete control
[25] = 250 g ai/ha, scale 0 to 100, 0 is no effect, 100 is complete control

## CCNC(=O)c1cc(CC)n(Cc2ccnc(C(F)(F)F)c2)n1 [Compound 196]
[1]; [18]
  Barnyardgrass plant response rating (0 to 100 scale, 0 is no effect, 100 is complete control): 90
[1]; [19]
  Barnyardgrass plant response rating: 100
[2]; [18]
  Crabgrass, Large plant response rating (0 to 100 scale): 100
[2]; [19]
  Crabgrass, Large plant response rating: 100
[3]; [18]
  Velvetleaf plant response rating (0 to 100 scale): 80
[3]; [19]
  Velvetleaf plant response rating: 100
[4]; [18]
  Wheat plant response rating (0 to 100 scale): 20
[4]; [19]
  Wheat plant response rating: 100
[5]; [18]
  Corn plant response rating (0 to 100 scale): 10
[5]; [19]
  Corn plant response rating: 90
[6]; Postemergence, 500 g ai/ha, 0 to 100 scale (0 no effect, 100 complete control)
  Crabgrass, Large plant response rating: 100
[6]; postemergence, 125 g ai/ha, about 10 days, visual rating on 0 to 100 scale (0 no effect, 100 complete control)
  Crabgrass, Large plant response rating: 90
[7]; [20]
  Pigweed plant response rating: 100
[7]; [21]
  Pigweed plant response rating: 100
[8]; [20]
  Wheat plant response rating: 40
[8]; [21]
  Wheat plant response rating: 90
[9]; [22]
  Blackgrass plant response rating: 85
[9]; [23]
  Blackgrass plant response rating: 90
[9]; [24]
  Plant response rating, Blackgrass: 90
[9]; [25]
  Blackgrass plant response rating: 90
[10]; [22]
  Wheat plant response rating: 0
[10]; [23]
  Wheat plant response rating: 65
[10]; [24]
  Plant response rating, Wheat: 85
[10]; [25]
  Wheat plant response rating: 80
[11]; [22]
  Corn plant response rating: 5
[11]; [23]
  Corn plant response rating: 5
[11]; [24]
  Plant response rating, Corn: 65
[11]; [25]
  Corn plant response rating: 98
[12]; [22]
  Foxtail, Giant plant response rating: 98
[12]; [23]
  Foxtail, Giant plant response rating: 100
[12]; [24]
  Plant response rating, Foxtail, Giant: 100
[12]; [25]
  Foxtail, Giant plant response rating: 100
[13]; [22]
  Johnsongrass plant response rating: 55
[13]; [23]
  Johnsongrass plant response rating: 85
[13]; [24]
  Plant response rating, Johnsongrass: 100
[13]; [25]
  Johnsongrass plant response rating: 100
[14]; [22]
  Ragweed plant response rating: 85
[14]; [23]
  Ragweed plant response rating: 90
[14]; [24]
  Plant response rating, Ragweed: 98
[14]; [25]
  Ragweed plant response rating: 98
[15]; [22]
  Barnyardgrass plant response rating: 98
[15]; [23]
  Barnyardgrass plant response rating: 100
[15]; [24]
  Plant response rating, Barnyardgrass: 100
[15]; [25]
  Barnyardgrass plant response rating: 100
[16]; [22]
  Oilseed Rape plant response rating: 90
[16]; [23]
  Oilseed Rape plant response rating: 98
[16]; [24]
  Plant response rating, Oilseed Rape: 100
[16]; [25]
  Oilseed Rape plant response rating: 100
[17]; [22]
  Velvetleaf plant response rating: 40
[17]; [23]
  Velvetleaf plant response rating: 100
[17]; [24]
  Plant response rating, Velvetleaf: 100
[17]; [25]
  Velvetleaf plant response rating: 100
